Source: ChEMBL document CHEMBL1157539, “Thousands of chemical starting points for antimalarial lead identification” (Nature, 2010)

Tested on: Plasmodium falciparum
Experiment: GSK_TCMDC: Inhibition of Plasmodium falciparum 3D7 in whole erythrocytes, using parasite LDH activity as an index of growth.
Format: functional, organism-based

SMILES | XC50 (Plasmodium falciparum, 3D7) | XC50
CS(=O)(=O)NCCCNCc1cccc(-c2ccc(-c3nc4ccccc4[nH]3)s2)c1 | 1.08 µM | 
O=C(/C=C/c1ccc(Cl)c(Cl)c1)NCCCCCN1CCCN(C(=S)Nc2ccc(Cl)cc2)CC1 | 1.13 µM | 
Cc1ccc(NC(=O)C2CCC2)cc1-c1ccc(C(=O)NCC2CC2)cc1 | 0.742 µM | 
O=C(Nc1c(F)cccc1F)c1cccc(-c2nn3ccccc3c2-c2ccnc(Nc3cccc(-c4cnco4)c3)n2)c1 | 0.361 µM | 
Cn1nccc1C(=O)NCCNCc1ccc(-c2ccc(-c3nc4cc(C(F)(F)F)ccc4[nH]3)s2)cc1 | 0.186 µM | 
Cc1ccc(NC(=O)Nc2ccc(Cl)c(C(F)(F)F)c2)cc1-c1ccc(C(=O)Nc2ccncc2)cc1 | 0.264 µM | 
Cc1cccc2nc(-c3cccc(-c4cccc(NC(=O)CN5CCN(C)CC5)c4)c3)[nH]c12 | 0.533 µM | 
CCN(CC)CCN(Cc1ccc(-c2ccc(C(F)(F)F)cc2)cc1)C(=O)Cn1c(SCc2ccc(F)cc2)nc(=O)c2sccc21 | 0.987 µM | 
CS(=O)(=O)Cc1ccc(Nc2nccc(N3CCCc4cc(NC(=O)Nc5cccc(C(F)(F)F)c5)ccc43)n2)cc1 | 0.148 µM | 
Cc1cc(C(=O)NC2CCN(Cc3ccccc3)CC2)ccc1-c1nc2ccc(C(F)(F)F)cc2[nH]1 | 0.891 µM | 
CC(C)N1CCCN(C(=O)C2CCN(c3ccc(C(=O)N4CCCC4)cn3)CC2)CC1 | 1.06 µM | 
COc1ccc(Br)cc1/C=C/C(=O)Nc1ccc(C2CCCN(C)C2)cc1 (stereo not given) | 0.633 µM | 
CS(=O)(=O)Nc1cccc(-c2cnc3[nH]cc(-c4cccc(CN)c4)c3c2)c1 | 1.66 µM | 
COC(=O)c1cc(OC)c(OC)cc1NC(=O)NC12CC3CC(CC(C3)C1)C2 | 0.879 µM | 
CN1CCCN(Cc2cccc(-c3ccc(NS(=O)(=O)c4cccc5cccnc45)cc3)c2)CC1 | 0.957 µM | 
COc1ccc(CCNc2nc(NCc3ccccc3)c3cc(OC)c(OC)cc3n2)cc1OC | 0.326 µM | 
CCOc1c(Br)cc(Cl)cc1CNCCCNc1nc2ccccc2[nH]1 | 0.689 µM | 
CC(C)c1cc(Oc2c(I)cc(CCCc3ncc[nH]3)cc2I)ccc1O | 1.12 µM | 
CCN(CC)CCN(Cc1ccc(-c2ccc(C(F)(F)F)cc2)cc1)C(=O)Cn1c(CCc2cccc(C#N)c2)nc(=O)c2ccccc21 | 0.768 µM | 
CC(C)c1cc2c(ccc3nc(N)nc(N)c32)[nH]1 | 0.039 µM | 
COc1ccc(NC(=O)C2c3ccccc3C(=O)N(C3CCCC3)C2c2cccs2)c(OC)c1 (stereo not given) | 1.48 µM | 
N=C(Cc1ccc(Cl)cc1)NCCN1CCCCCC1 | 0.742 µM | 
O=C(/C=C/c1ccc(Cl)c(Cl)c1)NCCCCCN1CCC(NC(=O)Nc2ccc(F)c(F)c2)CC1 | 0.842 µM | 
CCN(CC)C(=O)c1cnc(-c2ccccc2)nc1Oc1cccc(Cl)c1 | 1.16 µM | 

SMILES | XC50 (Plasmodium falciparum, 3D7) | XC50
Cc1[nH]c(C)c(-c2ccc(-c3ccc(Cl)cc3)nc2)c(=O)c1Cl | 0.106 µM | 
CC(=O)c1c(Cc2ccccc2Cl)c[nH]c1C | 0.848 µM | 
COc1ccc(Cc2nc3c(n2C(C)=O)SC(c2ccc(Cl)c(Cl)c2)=NN3C(C)=O)cc1 | 0.809 µM | 
CN(C)CCOc1ccc2c(=O)cc(CCc3cccc(F)c3F)n(CC(=O)N(C)Cc3ccc(-c4ccc(C(F)(F)F)cc4)cc3)c2c1 | 1.2 µM | 
COc1ccc2c(=NN=Cc3ccccc3)cc(C)[nH]c2c1 | 0.846 µM | 
CN(C)CCOc1cc(NC(=O)Nc2ccc(-c3ccncc3)c(Cl)c2)ccc1I | 0.143 µM | 
COc1cccc(-c2ccc(NC(=O)C3CCCN(Cc4cccc(OC)c4O)C3)cc2)c1 (stereo not given) | 0.847 µM | 
COc1cc(-c2nc(-c3ccccc3)c(-c3ccccc3)[nH]2)ccc1OCCN(C)C | 0.303 µM | 
COC(=O)c1ccc(CC(C)NCC(O)c2cccc(C(F)(F)F)c2)cc1 (stereo not given) |  | 0.765 µM
Nc1c(Cl)cc(C(O)CNCCCCCOCCCc2ccc3ncccc3c2)cc1Cl (stereo not given) | 0.978 µM | 
Cc1cc(N[C@@H](CC(C)C)C(=O)Nc2ccccc2)nc(NCc2ccccc2C)n1 | 0.777 µM | 
COC(=O)c1cccc(CNCc2ccc(-c3cccc(-c4nc5ccccc5[nH]4)c3)cc2)c1 | 0.261 µM | 
COc1cc(C2CCN(CCCCNC(=O)c3ccc(NC(=O)c4ccc(Cl)c(Cl)c4)cc3)CC2)ccc1OC(C)C | 0.316 µM | 
Fc1ccc(OC2CN(c3nccc(NCc4ccccc4Cl)n3)C2)cc1 | 0.898 µM | 
c1ccc2[nH]c(-c3ccc(-c4ccc(CN5CCN(CCN6CCOCC6)CC5)cc4)s3)nc2c1 | 0.28 µM | 
COc1c(Br)cc(Br)cc1-c1ccc(CN2CC3CCC2CC3)[nH]1 | 0.693 µM | 
CC(C)CNC(=O)c1cncc(-c2ccc(CNC3Cc4ccccc4C3)cc2)c1 | 0.698 µM | 
CN1CCN(CCNc2c3ccccc3nc3ccc4ccccc4c23)CC1 | 0.534 µM | 
CCN(CC)CCN(Cc1ccc(-c2ccc(C(F)(F)F)cc2)cc1)C(=O)Cn1c(/C=C/c2ccco2)nc(=O)c2ccccc21 | 0.87 µM | 
Cc1cccc2nc(-c3cccc(-c4ccc(NC(=O)C(C)CN5CCN(C)CC5)cc4)c3)[nH]c12 (stereo not given) | 0.175 µM | 
Cc1cc(OCc2ccccc2)c(OCc2ccccc2)cc1C(O)CN(C)Cc1ccccc1 (stereo not given) | 0.809 µM | 
Fc1ccc2[nH]c(-c3ccc(-c4ccc(CNCCN5CCNCC5)cc4)s3)nc2c1 | 0.779 µM | 
CC1=C(C(=O)OCCOCc2ccccc2)C(c2ccccc2C(F)(F)F)C(C(=O)OCCOCc2ccccc2)=C(C)N1 | 0.532 µM | 
Cc1ncccc1C(=O)Nc1cccc(-c2cccc(-c3nc4cc(C(F)(F)F)ccc4[nH]3)c2)c1 | 0.602 µM | 

SMILES | XC50 (Plasmodium falciparum, 3D7) | XC50
CC(C)(C)C1CCC(C(=O)c2ccc3ccccc3c2O)CC1 (stereo not given) | 0.751 µM | 
O=C(/C=C/c1ccc(Cl)c(Cl)c1)NCCCCN1CCCN(C(=O)Nc2ccc(Cl)c(Cl)c2)CC1 | 0.859 µM | 
COc1ccc2[nH]ccc(=NN=Cc3ccccc3F)c2c1 | 0.62 µM | 
COc1ccc(-c2cccc(NC(=O)c3cccc(Cl)c3)c2)cc1CNC(C)C | 0.721 µM | 
O=C(NCCN1CCOCC1)c1csc(C2CCCN(C(=O)c3ccc(O)c(-c4cc(Cl)cc(Cl)c4)c3)C2)n1 (stereo not given) | 1.03 µM | 
Cc1ccc(NC(=O)c2ccc(CN3CCCN(Cc4cccc(Cl)c4)CC3)cc2)cc1C | 1.21 µM | 
CC(C)(C)OC(=O)[C@H](CC(N)=O)NC(=O)c1ccc(-c2ccc(-c3nc4cc(C(F)(F)F)ccc4[nH]3)s2)cc1 | 0.271 µM | 
Cc1cccc2nc(-c3ccc(-c4ccc(NC(=O)Nc5cccc(C#N)c5)cc4)cc3)[nH]c12 | 0.114 µM | 
O=C(N/C=N/c1cc([N+](=O)[O-])c(-c2ccncc2)n1-c1ccccc1)c1cccc(O)c1 | 0.331 µM | 
COc1ccc2nc(-c3ccc(F)cc3)cc([C@@H](O)[C@@H]3C[C@@H]4CCN3CC4C=NO)c2c1 (stereo not given in full) | 0.248 µM | 
Cc1nc(N)nc(N)c1-c1cc(Cl)c(Cl)c(Cl)c1 | 0.834 µM | 
O=C(Cn1c(CCc2cccc(F)c2F)cc(=O)c2cccnc21)N(CCCn1ccnc1)Cc1ccc(-c2ccc(C(F)(F)F)cc2)cc1 | 0.797 µM | 
NC(=O)C1CCN(Cc2cccc(-c3ccc(-c4nc5cc(C(F)(F)F)ccc5[nH]4)cc3)c2)CC1 | 0.61 µM | 
COc1ccc2nccc(N(C)CC3(O)CCN(CCc4ccc5c(c4)OCCO5)CC3)c2n1 | 0.143 µM | 
COc1ccc(C(=O)C2CC2CN(C)CCC(O)c2ccc(Cl)c(Cl)c2)cc1 (stereo not given) | 0.873 µM | 
O=C(/C=C/c1ccccc1Cl)Nc1ccc(Br)c(OCCN2CCCCC2)c1 | 0.168 µM | 
COc1ccc2ncc(F)c(NC(=O)C3CCC(NCc4cc5cc(F)cc(F)c5[nH]4)CC3)c2n1 (stereo not given) | 1.09 µM | 
COc1cc(-c2cc(-c3ccc(OCCN(C)C)cc3)[nH]c2-c2ccncc2)ccc1Cl | 0.711 µM | 
COc1ccc(NC(=O)[C@H](CC(C)C)Nc2cc(C)nc(Nc3ccccc3)n2)cc1 | 0.866 µM | 
CCOC(=O)c1c(SCc2cccc(F)c2F)[nH]c2ccccc2c1=O | 0.644 µM | 
CCCN(CCC)CCCN(CCCN(CCC)CCC)c1cc(C)nc(Nc2ccc3cc(Br)ccc3c2)n1 | 0.21 µM | 
CC(=O)Nc1ncc(C(=O)Nc2cccc(-c3cccc(-c4nc5cc(C(F)(F)F)ccc5[nH]4)c3)c2)s1 | 0.185 µM | 
COc1cc2nc(NCCCO)nc(Nc3ccc(Oc4ccccc4)cc3)c2cc1OC | 0.145 µM | 
O=C(/C=C/c1ccc(Cl)c(Cl)c1)NCCCCCCN1CCN(C(=O)Nc2ccc(C(F)(F)F)cc2)CC1 | 0.397 µM | 

SMILES | XC50 (Plasmodium falciparum, 3D7) | XC50
Cc1cc(NCc2ccccc2)nc(NCc2ccccc2)n1 | 0.974 µM | 
COc1cc(NCCCNC(=O)c2ccc(Cl)c(Cl)c2)nc2ccccc12 | 0.137 µM | 
COc1ccc(CNC2CCN(C)CC2)cc1-c1cccc(S(=O)(=O)NCc2ccccc2)c1 | 0.723 µM | 
COc1ccc2ncc(F)c(CCN3C[C@H](CNCc4cc(C#N)c5c(c4)OCCO5)[C@H](O)C3)c2n1 | 0.582 µM | 
CC(C)NCc1cc(Nc2ccnc3cc(Cl)ccc23)ccc1O | 0.025 µM | 
CC1CCCN(C(=O)C(C)Nc2cc(Cl)ccc2N2CCOCC2)C1 (stereo not given) | 0.316 µM | 
O=C(Nc1ccc(-c2csc3nccn23)cc1)c1ccc(Cl)cc1 | 0.584 µM | 
CC(C)CCN(Cc1cncn1Cc1cccc(C(F)(F)F)c1)C(=O)c1cncc(-c2ccccc2)c1 | 0.774 µM | 
O=C(NC1CCC(CN2CCC(c3c[nH]c4ccccc34)CC2)CC1)c1cc(-c2cccc(Cl)c2)n(-c2ccc(Cl)cc2Cl)n1 (stereo not given) | 1.08 µM | 
CC(=O)Nc1ccc(C(=O)Nc2cccc(-c3cccc(-c4nc5cccc(C)c5[nH]4)c3)c2)cn1 | 0.0647 µM | 
COc1cc2c(c(OC)c1OC)C[C@H]1c3c(cc4c(c3-2)OCO4)CCN1C | 0.969 µM | 
COc1ccc(-c2cccc(NC(=O)c3ccc(Cl)cc3)c2)cc1CN1CCCC1 | 0.778 µM | 
COc1ccc(N2CCN(CCCCNCc3ccc(NC(=O)c4cc(Cl)cc(Cl)c4)cc3)CC2)c(OC)c1 | 0.253 µM | 
CCCCCC(C)N/C(=N/c1ccccc1Br)Nc1ccc(C#N)cc1O (stereo not given) | 0.751 µM | 
CCOC(=O)C1=C(C)NC(C)=C(C(=O)OCC)C1(C(=O)OCc1ccccc1)c1cccc(C(F)(F)F)c1 | 1.23 µM | 
FC(F)(F)c1ccc2[nH]c(-c3ccc(-c4cccc(CN5CCN(c6ccncc6)CC5)c4)cc3)nc2c1 | 0.118 µM | 
O=C(Nc1ccc(S(=O)(=O)N2CCCCC2)cc1)c1cc(-c2cc(Cl)ccc2O)n[nH]1 | 0.811 µM | 
O=S(=O)(c1ccc(OCc2ccc(Cl)cc2)cc1)c1cc2c(cc1OCc1ccccc1)CCN(C1CCC1)CC2 | 1.02 µM | 
Cc1cc(=NN=Cc2cccc(Cl)c2)c2ccc(F)cc2[nH]1 | 0.24 µM | 
O=C(Nc1ccc(N2CCN(Cc3cccc(F)c3)CC2)cc1)c1cccs1 | 0.682 µM | 
CC(C)(C)c1ccc(NC(=O)c2ccc(CN3CCCN(CC4CCCCC4)CC3)cc2)cc1 | 0.542 µM | 
CC1(C)NC(=N)N=C(NOCC=Cc2ccccc2)N1 | 0.227 µM | 
N=C(NC1CC1)c1ccc2[nH]c(CCCCCc3nc4cc(C(=N)NC5CC5)ccc4[nH]3)nc2c1 | 0.934 µM | 
